Test results taken from article PMC8185074, “Anchor extension: a structure-guided approach to design cyclic peptides targeting enzyme active sites” (Nature Communications, 2021).
Peptide text beside a SMILES is read from it.

How the values were obtained:
Type in all cases: biochemical
HDAC6 = molecular target: T1, HDAC6 (Homo sapiens, UniProt Q9UBN7); assay: HDAC6 inhibition, full IC50 measurement (Reaction Biology; fluorogenic p53 peptide RHKK(Ac)AMC)
T1 construct: purchased Reaction Biology Corporation (assay run by the CRO)
T1 sequence (Q9UBN7 1-1215): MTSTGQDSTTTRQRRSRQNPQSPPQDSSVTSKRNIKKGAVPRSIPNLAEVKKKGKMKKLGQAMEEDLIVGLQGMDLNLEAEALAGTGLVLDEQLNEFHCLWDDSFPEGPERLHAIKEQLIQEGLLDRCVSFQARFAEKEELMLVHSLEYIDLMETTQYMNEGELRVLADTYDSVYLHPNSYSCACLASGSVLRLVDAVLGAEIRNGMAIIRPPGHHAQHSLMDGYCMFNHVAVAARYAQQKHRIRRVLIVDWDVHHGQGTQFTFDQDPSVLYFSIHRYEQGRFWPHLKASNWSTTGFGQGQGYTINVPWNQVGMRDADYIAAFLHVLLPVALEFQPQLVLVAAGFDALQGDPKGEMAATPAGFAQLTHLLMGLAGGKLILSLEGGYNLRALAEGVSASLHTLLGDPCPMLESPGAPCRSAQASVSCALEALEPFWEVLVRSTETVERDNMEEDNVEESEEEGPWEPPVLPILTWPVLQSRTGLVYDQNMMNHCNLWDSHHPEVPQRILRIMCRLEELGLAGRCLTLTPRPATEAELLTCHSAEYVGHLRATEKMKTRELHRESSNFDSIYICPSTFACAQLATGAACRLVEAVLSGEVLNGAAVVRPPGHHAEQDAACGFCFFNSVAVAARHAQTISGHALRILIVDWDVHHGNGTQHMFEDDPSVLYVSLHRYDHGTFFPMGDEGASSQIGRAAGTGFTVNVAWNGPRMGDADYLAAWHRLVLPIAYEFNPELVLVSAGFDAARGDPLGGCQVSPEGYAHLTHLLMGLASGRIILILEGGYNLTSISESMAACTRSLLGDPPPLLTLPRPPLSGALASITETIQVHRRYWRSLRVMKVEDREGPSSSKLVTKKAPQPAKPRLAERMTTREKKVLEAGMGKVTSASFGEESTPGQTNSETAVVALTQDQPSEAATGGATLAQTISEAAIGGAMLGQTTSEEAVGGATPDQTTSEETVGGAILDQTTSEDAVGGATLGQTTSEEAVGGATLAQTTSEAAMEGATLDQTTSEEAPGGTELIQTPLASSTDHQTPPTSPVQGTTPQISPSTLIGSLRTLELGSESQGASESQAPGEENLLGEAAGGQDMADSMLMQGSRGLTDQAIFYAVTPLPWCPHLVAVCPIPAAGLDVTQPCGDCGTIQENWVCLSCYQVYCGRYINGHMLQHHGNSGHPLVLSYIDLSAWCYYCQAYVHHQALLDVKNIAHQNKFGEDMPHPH
In short: (§1)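 The reaction was a 1 h, 30 °C incubation of enzyme, acoustically added peptide and 50 μM p53-derived AMC substrate in pH 8.0 Tris buffer with NaCl, KCl, MgCl2, 1 mg/ml BSA and 1% DMSO. Duplicate values were averaged.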

HDAC3 = molecular target: T2, HDAC3 (Homo sapiens, UniProt O15379); assay: HDAC3 inhibition, full IC50 measurement (Reaction Biology; fluorogenic p53 peptide RHKK(Ac)AMC)
T2 construct: purchased Reaction Biology Corporation (assay run by the CRO)
T2 sequence (O15379 whole entry): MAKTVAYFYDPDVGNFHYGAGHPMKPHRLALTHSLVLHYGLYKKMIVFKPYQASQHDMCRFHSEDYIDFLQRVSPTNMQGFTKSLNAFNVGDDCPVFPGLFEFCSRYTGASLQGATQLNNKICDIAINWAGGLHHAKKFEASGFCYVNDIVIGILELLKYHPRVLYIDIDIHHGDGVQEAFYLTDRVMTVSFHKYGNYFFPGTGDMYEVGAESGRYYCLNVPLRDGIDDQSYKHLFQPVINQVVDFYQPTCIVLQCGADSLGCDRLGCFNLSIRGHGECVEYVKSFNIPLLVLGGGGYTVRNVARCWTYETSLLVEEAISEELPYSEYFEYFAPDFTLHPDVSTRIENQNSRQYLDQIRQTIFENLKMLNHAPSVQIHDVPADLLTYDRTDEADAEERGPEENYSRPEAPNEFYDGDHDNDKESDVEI
T2 sequence (Q9Y618 395-489 partner limits assumed): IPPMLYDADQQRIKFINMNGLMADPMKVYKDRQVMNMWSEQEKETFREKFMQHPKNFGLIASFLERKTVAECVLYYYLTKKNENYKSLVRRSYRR
In short: as §1

HDAC8 = molecular target: T3, HDAC8 (Homo sapiens, UniProt Q9BY41); assay: HDAC8 inhibition, full IC50 measurement (Reaction Biology; fluorogenic p53 peptide RHKK(Ac)AMC); settings: t1/t2 replicates
T3 construct: purchased Reaction Biology Corporation (assay run by the CRO)
T3 sequence (Q9BY41 1-377): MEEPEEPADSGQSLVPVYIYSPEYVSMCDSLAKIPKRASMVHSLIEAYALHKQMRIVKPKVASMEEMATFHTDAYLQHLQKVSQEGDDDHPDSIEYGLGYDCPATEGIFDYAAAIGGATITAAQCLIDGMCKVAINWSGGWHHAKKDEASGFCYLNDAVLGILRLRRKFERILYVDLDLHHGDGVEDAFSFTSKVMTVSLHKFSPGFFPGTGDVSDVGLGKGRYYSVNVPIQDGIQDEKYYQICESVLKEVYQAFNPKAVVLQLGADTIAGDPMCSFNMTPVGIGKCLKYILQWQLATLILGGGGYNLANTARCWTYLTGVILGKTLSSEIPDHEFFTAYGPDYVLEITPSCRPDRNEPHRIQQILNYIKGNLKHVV
In short: as §1

N=C(N)NCCC[C@@H]1NC(=O)[C@@H](CCCNC(=N)N)NC(=O)[C@H]2CCCN2C(=O)[C@@H](Cc2c[nH]cn2)NC(=O)[C@H](Cc2ccc(O)cc2)NC(=O)[C@H](CCCCCS)NC(=O)[C@H](CCc2ccccc2)NC(=O)[C@@H](CO)NC(=O)[C@H](CC(=O)O)NC1=O [des3.3.1, SHA-Tyr-dHis-dPro-dArg-Arg-Asp-dSer-C27] (HELM PEPTIDE1{[O=C([C@H](CCCCCS)N[*:1])[*:2]].Y.[dH].[dP].[dR].R.D.[dS].[O=C([C@H](CCc1ccccc1)N[*:1])[*:2]]}$PEPTIDE1,PEPTIDE1,1:R1-9:R2$$$V2.0)
HDAC6 activity raw data (signal) (HDAC6; Conc. 1.00E-05 M, t1): 557
HDAC6 activity raw data (signal) (HDAC6; Conc. 1.00E-05 M, t2): -139
HDAC6 activity raw data (signal) (HDAC6; Conc. 1.11E-06 M, t1): 10535
HDAC6 activity raw data (signal) (HDAC6; Conc. 1.11E-06 M, t2): 12694
HDAC6 activity raw data (signal) (HDAC6; Conc. 1.23E-07 M, t1): 31520
HDAC6 activity raw data (signal) (HDAC6; Conc. 1.23E-07 M, t2): 38979
HDAC6 activity raw data (signal) (HDAC6; Conc. 1.37E-08 M, t1): 82998
HDAC6 activity raw data (signal) (HDAC6; Conc. 1.37E-08 M, t2): 93685
HDAC6 activity raw data (signal) (HDAC6; Conc. 1.52E-09 M, t1): 115704
HDAC6 activity raw data (signal) (HDAC6; Conc. 1.52E-09 M, t2): 134545
HDAC6 activity raw data (signal) (HDAC6; Conc. 3.33E-06 M, t1): 4544
HDAC6 activity raw data (signal) (HDAC6; Conc. 3.33E-06 M, t2): 5827
HDAC6 activity raw data (signal) (HDAC6; Conc. 3.70E-07 M, t1): 20428
HDAC6 activity raw data (signal) (HDAC6; Conc. 3.70E-07 M, t2): 19976
HDAC6 activity raw data (signal) (HDAC6; Conc. 4.12E-08 M, t1): 50772
HDAC6 activity raw data (signal) (HDAC6; Conc. 4.12E-08 M, t2): 68185
HDAC6 activity raw data (signal) (HDAC6; Conc. 4.57E-09 M, t1): 115536
HDAC6 activity raw data (signal) (HDAC6; Conc. 4.57E-09 M, t2): 120171
HDAC6 activity raw data (signal) (HDAC6; Conc. 5.08E-10 M, t1): 151999
HDAC6 activity raw data (signal) (HDAC6; Conc. 5.08E-10 M, t2): 154121
HDAC3 activity raw data (signal) (HDAC3; Conc. 1.00E-05 M, t1): -3010
HDAC3 activity raw data (signal) (HDAC3; Conc. 1.00E-05 M, t2): -2975
HDAC3 activity raw data (signal) (HDAC3; Conc. 1.11E-06 M, t1): -3312
HDAC3 activity raw data (signal) (HDAC3; Conc. 1.11E-06 M, t2): 10427
HDAC3 activity raw data (signal) (HDAC3; Conc. 1.23E-07 M, t1): 21751
HDAC3 activity raw data (signal) (HDAC3; Conc. 1.23E-07 M, t2): 40450
HDAC3 activity raw data (signal) (HDAC3; Conc. 1.37E-08 M, t1): 79797
HDAC3 activity raw data (signal) (HDAC3; Conc. 1.37E-08 M, t2): 111435
HDAC3 activity raw data (signal) (HDAC3; Conc. 1.52E-09 M, t1): 143913
HDAC3 activity raw data (signal) (HDAC3; Conc. 1.52E-09 M, t2): 186935
HDAC3 activity raw data (signal) (HDAC3; Conc. 3.33E-06 M, t1): -4595
HDAC3 activity raw data (signal) (HDAC3; Conc. 3.33E-06 M, t2): 4931
HDAC3 activity raw data (signal) (HDAC3; Conc. 3.70E-07 M, t1): 9528
HDAC3 activity raw data (signal) (HDAC3; Conc. 3.70E-07 M, t2): 17560
HDAC3 activity raw data (signal) (HDAC3; Conc. 4.12E-08 M, t1): 66179
HDAC3 activity raw data (signal) (HDAC3; Conc. 4.12E-08 M, t2): 74103
HDAC3 activity raw data (signal) (HDAC3; Conc. 4.57E-09 M, t1): 114353
HDAC3 activity raw data (signal) (HDAC3; Conc. 4.57E-09 M, t2): 144441
HDAC3 activity raw data (signal) (HDAC3; Conc. 5.08E-10 M, t1): 223427
HDAC3 activity raw data (signal) (HDAC3; Conc. 5.08E-10 M, t2): 239829
HDAC8 activity raw data (signal) (HDAC8; peptide conc. 1.00E-05 M, listed as des3.3.1_t1): 1764805
HDAC8 activity raw data (signal) (HDAC8; peptide conc. 1.00E-05 M, listed as des3.3.1_t2): 2650341
HDAC8 activity raw data (signal) (HDAC8; peptide conc. 1.11E-06 M, listed as des3.3.1_t1): 12709203
HDAC8 activity raw data (signal) (HDAC8; peptide conc. 1.11E-06 M, listed as des3.3.1_t2): 10450749
HDAC8 activity raw data (signal) (HDAC8; peptide conc. 1.23E-07 M, listed as des3.3.1_t1): 26946160
HDAC8 activity raw data (signal) (HDAC8; peptide conc. 1.23E-07 M, listed as des3.3.1_t2): 26450742
HDAC8 activity raw data (signal) (HDAC8; peptide conc. 1.37E-08 M, listed as des3.3.1_t1): 39769433
HDAC8 activity raw data (signal) (HDAC8; peptide conc. 1.37E-08 M, listed as des3.3.1_t2): 37609928
HDAC8 activity raw data (signal) (HDAC8; peptide conc. 1.52E-09 M, listed as des3.3.1_t1): 46887256
HDAC8 activity raw data (signal) (HDAC8; peptide conc. 1.52E-09 M, listed as des3.3.1_t2): 44277806
HDAC8 activity raw data (signal) (HDAC8; peptide conc. 3.33E-06 M, listed as des3.3.1_t1): 5825269
HDAC8 activity raw data (signal) (HDAC8; peptide conc. 3.33E-06 M, listed as des3.3.1_t2): 6935130
HDAC8 activity raw data (signal) (HDAC8; peptide conc. 3.70E-07 M, listed as des3.3.1_t1): 21428540
HDAC8 activity raw data (signal) (HDAC8; peptide conc. 3.70E-07 M, listed as des3.3.1_t2): 18809141
HDAC8 activity raw data (signal) (HDAC8; peptide conc. 4.12E-08 M, listed as des3.3.1_t1): 34070523
HDAC8 activity raw data (signal) (HDAC8; peptide conc. 4.12E-08 M, listed as des3.3.1_t2): 34526681
HDAC8 activity raw data (signal) (HDAC8; peptide conc. 4.57E-09 M, listed as des3.3.1_t1): 42350569
HDAC8 activity raw data (signal) (HDAC8; peptide conc. 4.57E-09 M, listed as des3.3.1_t2): 43646566
HDAC8 activity raw data (signal) (HDAC8; peptide conc. 5.08E-10 M, listed as des3.3.1_t1): 45458566
HDAC8 activity raw data (signal) (HDAC8; peptide conc. 5.08E-10 M, listed as des3.3.1_t2): 46659013
